How the values were obtained:
[1] = target: T1, UDP-glucuronosyltransferase 2B15 (Homo sapiens, UniProt P54855); assay: (§1) Activity of human UGT2B15 expressed in microsomes isolated from baculovirus infected insect cell assessed as enzyme-mediated (2S,3S,4S,5R,6R)-3,4,5-trihydroxy-6-(5-(4-((6-methoxy-1-methyl-1H-benzo[d]imidazol-2-yl)methoxy)benzyl)-2,4-dioxothiazolidin-3-yl)tetrahydro-2H-pyran-2-carboxylic acid formation at 20 uM after 4 hrs by radio-HPLC/LC-MS/MS analysis in presence of UDPGA; format: ADME
T1 sequence (P54855 whole entry): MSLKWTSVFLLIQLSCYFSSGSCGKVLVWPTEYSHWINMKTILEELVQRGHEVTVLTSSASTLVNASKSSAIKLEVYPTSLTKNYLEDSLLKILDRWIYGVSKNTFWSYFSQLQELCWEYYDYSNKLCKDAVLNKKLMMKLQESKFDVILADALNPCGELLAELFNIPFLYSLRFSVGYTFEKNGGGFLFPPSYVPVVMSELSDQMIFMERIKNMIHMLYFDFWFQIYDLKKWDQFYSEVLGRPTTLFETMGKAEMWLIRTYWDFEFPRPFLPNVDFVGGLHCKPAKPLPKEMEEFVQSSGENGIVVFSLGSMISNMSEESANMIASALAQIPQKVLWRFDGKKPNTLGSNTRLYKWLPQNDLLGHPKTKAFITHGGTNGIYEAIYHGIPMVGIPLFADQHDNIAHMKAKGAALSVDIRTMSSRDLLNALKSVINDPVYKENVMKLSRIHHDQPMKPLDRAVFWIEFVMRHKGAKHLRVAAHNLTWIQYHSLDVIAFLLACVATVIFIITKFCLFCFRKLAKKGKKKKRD

[2] = target: T2, UDP-glucuronosyltransferase 2B17 (Homo sapiens, UniProt O75795); assay: as §1, with “UGT2B17” for “UGT2B15”; format: ADME
T2 sequence (O75795 whole entry): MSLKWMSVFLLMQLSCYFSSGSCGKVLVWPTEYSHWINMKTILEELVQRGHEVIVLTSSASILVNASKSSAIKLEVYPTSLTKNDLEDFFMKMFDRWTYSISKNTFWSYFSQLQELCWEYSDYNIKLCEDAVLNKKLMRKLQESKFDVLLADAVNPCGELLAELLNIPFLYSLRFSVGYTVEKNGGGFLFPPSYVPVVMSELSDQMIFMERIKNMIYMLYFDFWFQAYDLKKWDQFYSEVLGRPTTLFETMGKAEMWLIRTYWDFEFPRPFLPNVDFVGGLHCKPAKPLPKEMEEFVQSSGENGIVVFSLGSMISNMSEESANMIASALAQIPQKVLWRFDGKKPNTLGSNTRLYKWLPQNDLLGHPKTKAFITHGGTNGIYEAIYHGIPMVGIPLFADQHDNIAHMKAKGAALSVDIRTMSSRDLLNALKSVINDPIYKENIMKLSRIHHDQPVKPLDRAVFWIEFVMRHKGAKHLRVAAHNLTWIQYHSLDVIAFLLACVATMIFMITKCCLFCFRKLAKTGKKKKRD

[3] = Drug metabolism in po dosed monkey bile assessed as formation of 5-(4-((6-methoxy-1H-benzo[d]imidazol-2-yl)methoxy)benzyl)thiazolidine-2,4-dione; format: ADME, organism-based, Macaca mulatta; conditions: rhesus monkey, in vivo
[4] = Drug metabolism in human hepatocytes assessed as formation of 5-hydroxy-5-(4-((6-methoxy-1-methyl-1H-benzo[d]imidazol-2-yl)methoxy)benzyl)thiazolidine-2,4-dione at 30 uM after 3 hrs by radio-HPLC/LC-MS/MS analysis in presence of NADPH-generating system and NADPH-generating system/SAM; format: ADME, cell-based, Hepatocyte
Cytochrome P450 2C8 = target: T3, Cytochrome P450 2C8 (Homo sapiens, UniProt P10632); assay: Activity of human CYP2C8 expressed in microsomes isolated from baculovirus infected insect cell assessed as enzyme-mediated (2S,3S,4S,5R,6R)-6-((1-carboxy-2-(4-((6-methoxy-1-methyl-1H-benzo[d]imidazol-2-yl)methoxy)phenyl)ethylthio)carbonylamino)-3,4,5-trihydroxytetrahydro-2H-pyran-2-carboxylic acid formation at 20 uM after 2 hrs by radio-HPLC/LC-MS/MS analysis in presence of NADPH-generating system/SAM; format: ADME
T3 sequence (P10632 whole entry): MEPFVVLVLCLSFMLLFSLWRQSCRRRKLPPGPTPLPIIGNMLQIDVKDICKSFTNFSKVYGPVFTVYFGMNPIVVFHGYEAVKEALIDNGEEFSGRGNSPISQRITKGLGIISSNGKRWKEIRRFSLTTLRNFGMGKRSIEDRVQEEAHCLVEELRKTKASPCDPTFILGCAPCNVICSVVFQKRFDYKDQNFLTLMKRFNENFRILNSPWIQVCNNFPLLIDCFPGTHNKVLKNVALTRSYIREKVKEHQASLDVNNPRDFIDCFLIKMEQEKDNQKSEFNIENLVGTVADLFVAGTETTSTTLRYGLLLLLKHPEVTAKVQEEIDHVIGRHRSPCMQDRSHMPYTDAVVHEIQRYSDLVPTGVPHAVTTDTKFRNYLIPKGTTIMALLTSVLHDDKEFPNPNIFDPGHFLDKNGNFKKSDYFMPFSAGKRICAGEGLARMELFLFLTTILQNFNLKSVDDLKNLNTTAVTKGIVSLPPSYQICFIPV

[5] = target: T4, UDP-glucuronosyltransferase 1A3 (Homo sapiens, UniProt P35503); assay: (§2) Activity of human UGT1A3 expressed in microsomes isolated from baculovirus infected insect cell assessed as enzyme-mediated 5-(4-((6-methoxy-1H-benzo[d]imidazol-2-yl)methoxy)benzyl)thiazolidine-2,4-dione formation at 20 uM after 4 hrs by radio-HPLC/LC-MS/MS analysis in presence of NADPH-generating system and NADPH-generating system/SAM in presence of UDPGA and UDPGA/SAM; format: ADME
T4 sequence (P35503 whole entry): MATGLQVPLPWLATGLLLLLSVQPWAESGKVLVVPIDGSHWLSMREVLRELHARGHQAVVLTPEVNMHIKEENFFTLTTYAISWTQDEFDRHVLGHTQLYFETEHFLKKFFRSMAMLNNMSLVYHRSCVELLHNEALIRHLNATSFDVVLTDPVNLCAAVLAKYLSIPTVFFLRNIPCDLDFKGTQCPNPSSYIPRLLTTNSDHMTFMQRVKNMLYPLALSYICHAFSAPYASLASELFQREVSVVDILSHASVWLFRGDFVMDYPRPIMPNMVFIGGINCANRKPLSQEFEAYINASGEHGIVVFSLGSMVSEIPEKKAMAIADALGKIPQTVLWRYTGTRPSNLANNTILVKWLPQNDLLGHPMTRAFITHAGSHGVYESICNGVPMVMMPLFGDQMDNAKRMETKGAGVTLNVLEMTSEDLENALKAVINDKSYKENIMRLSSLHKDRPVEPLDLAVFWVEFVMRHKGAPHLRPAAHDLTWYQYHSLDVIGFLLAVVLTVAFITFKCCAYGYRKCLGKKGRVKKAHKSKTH

[6] = target: T4, UDP-glucuronosyltransferase 1A3; assay: as §2, with “2-hydroxy-3-(4-((6-methoxy-1-methyl-1H-benzo[d]imidazol-2-yl)methoxy)phenyl)propanamide” for “5-(4-((6-methoxy-1H-benzo[d]imidazol-2-yl)methoxy)benzyl)thiazolidine-2,4-dione”; format: ADME

- Drug metabolism [1]: metabolite_not_detected
- Drug metabolism [2]: metabolite_not_detected
- Drug metabolism [3]: metabolite_detected
- Drug metabolism [4]: metabolite_detected
- Drug metabolism (Cytochrome P450 2C8): metabolite_not_detected
- Drug metabolism [5]: metabolite_not_detected
- Drug metabolism [6]: metabolite_not_detected
Structure (SMILES): COc1ccc2nc(COc3ccc(C[14CH]4SC(=O)NC4=O)cc3)n(C)c2c1.Cl (racemic)

From ChEMBL document CHEMBL3526048, “In vitro metabolism of rivoglitazone, a novel peroxisome proliferator-activated receptor γ agonist, in rat, monkey, and human liver microsomes and freshly isolated hepatocytes” (Drug Metab Dispos, 2011)
